Consider two compounds from ChEMBL document CHEMBL3045679, “Microwave-assisted synthesis and pharmacological studies of novel 5-deazaalloxazine derivatives” (2012).

In experiment [1] the test system is Lipomyces lipofer. Description: Antifungal activity against Lipomyces lipofer NCIM 3252 at 1000 ug/disk after 72 hr by disk diffusion method. It counts as functional. As to conditions: NCIM 3252, 72 h, read-out: DIZ. (In general: In agar diffusion tests the substance spreads into inoculated agar from a disc or well.)
For experiment [2], the system named is Lipomyces lipofer. Briefly: Antifungal activity against Lipomyces lipofer NCIM 3252 at 500 ug/disk after 72 hr by disk diffusion method. It counts as functional. Particulars: NCIM 3252, 72 h, read-out: DIZ.
Experiment [3] concerns Candida albicans. Briefly: Antifungal activity against Candida albicans NCIM 3471 at 1000 ug/disk after 72 hr by disk diffusion method. It counts as functional. Particulars: NCIM 3471, 72 h, read-out: DIZ.
In experiment [4] the test system is Candida albicans. Briefly: Antifungal activity against Candida albicans NCIM 3471 at 500 ug/disk after 72 hr by disk diffusion method. It counts as functional. Particulars: NCIM 3471, 72 h, read-out: DIZ.
The subject of experiment [5] is Rhodotorula mucilaginosa. Briefly: Antifungal activity against Rhodotorula mucilaginosa NCIM 3174 at 1000 ug/disk after 72 hr by disk diffusion method. It counts as functional. Particulars: NCIM 3174, 72 h, read-out: DIZ.
Experiment [6] has as its system Rhodotorula mucilaginosa. Briefly: Antifungal activity against Rhodotorula mucilaginosa NCIM 3174 at 500 ug/disk after 72 hr by disk diffusion method. It counts as functional. As to conditions: NCIM 3174, 72 h, read-out: DIZ.
Experiment [7] has as its system Aspergillus flavus. Briefly: Antifungal activity against Aspergillus flavus NCIM 535 at 1000 ug/disk after 72 hr by disk diffusion method. It counts as functional. As to conditions: NCIM 535, 72 h, read-out: DIZ.
Experiment [8] relates to Aspergillus flavus. Briefly: Antifungal activity against Aspergillus flavus NCIM 535 at 500 ug/disk after 72 hr by disk diffusion method. It counts as functional. Particulars: NCIM 535, 72 h, read-out: DIZ.
Experiment [9] concerns Aspergillus niger. Briefly: Antifungal activity against Aspergillus niger NCIM 1196 at 1000 ug/disk after 72 hr by disk diffusion method. It counts as functional. As to conditions: NCIM 1196, 72 h, read-out: DIZ.
Experiment [10] relates to Aspergillus niger. Briefly: Antifungal activity against Aspergillus niger NCIM 1196 at 500 ug/disk after 72 hr by disk diffusion method. The format is functional.
Experiment [11] concerns Penicillium chrysogenum. Briefly: Antifungal activity against Penicillium chrysogenum NCIM 707 at 1000 ug/disk after 72 hr by disk diffusion method. It counts as functional. As to conditions: NCIM 707, 72 h, read-out: DIZ.
Experiment [12] relates to Penicillium chrysogenum. Briefly: Antifungal activity against Penicillium chrysogenum NCIM 707 at 500 ug/disk after 72 hr by disk diffusion method. It counts as functional. Particulars: NCIM 707, 72 h, read-out: DIZ.
In experiment [13] the test system is Streptomyces albus. Briefly: Antibacterial activity against Streptomyces albus NCIM 2178 at 1000 ug/disk after 24 hr by disk diffusion method. It counts as functional. Particulars: NCIM 2178, 24 h, read-out: DIZ.
Experiment [14] concerns Streptomyces albus. Description: Antibacterial activity against Streptomyces albus NCIM 2178 at 500 ug/disk after 24 hr by disk diffusion method. The format is functional, organism-based.
Experiment [15] concerns Bacillus cereus. Briefly: Antibacterial activity against Bacillus cereus NCIM 2155 at 1000 ug/disk after 24 hr by disk diffusion method. The format is functional. As to conditions: NCIM 2155, 24 h, read-out: DIZ.
For experiment [16], the system named is Bacillus cereus. Description: Antibacterial activity against Bacillus cereus NCIM 2155 at 500 ug/disk after 24 hr by disk diffusion method. Particulars: NCIM 2155, 24 h, read-out: DIZ. The format is functional.
The subject of experiment [17] is Bacillus subtilis. Description: Antibacterial activity against Bacillus subtilis NCIM 2063 at 1000 ug/disk after 24 hr by disk diffusion method. It counts as functional. Particulars: NCIM 2063, 24 h, read-out: DIZ.
Experiment [18] relates to Bacillus subtilis. Briefly: Antibacterial activity against Bacillus subtilis NCIM 2063 at 500 ug/disk after 24 hr by disk diffusion method. The format is functional. As to conditions: NCIM 2063, 24 h, read-out: DIZ.
The subject of experiment [19] is Klebsiella aerogenes. Description: Antibacterial activity against Enterobacter aerogenes NCIM 2239 at 1000 ug/disk after 24 hr by disk diffusion method. It counts as functional. Particulars: NCIM 2239, 24 h, read-out: DIZ.
The test system of experiment [20] is Klebsiella aerogenes. Briefly: Antibacterial activity against Enterobacter aerogenes NCIM 2239 at 500 ug/disk after 24 hr by disk diffusion method. The format is functional. As to conditions: NCIM 2239, 24 h, read-out: DIZ.
In experiment [21] the test system is Pseudomonas aeruginosa. Briefly: Antibacterial activity against Pseudomonas aeruginosa NCIM 2200 at 1000 ug/disk after 24 hr by disk diffusion method. The format is functional. Particulars: NCIM 2200, 24 h, read-out: DIZ.
The subject of experiment [22] is Pseudomonas aeruginosa. Briefly: Antibacterial activity against Pseudomonas aeruginosa NCIM 2200 at 500 ug/disk after 24 hr by disk diffusion method. The format is functional. As to conditions: NCIM 2200, 24 h, read-out: DIZ.
In experiment [23] the test system is Escherichia coli. Briefly: Antibacterial activity against Escherichia coli NCIM 2065 at 1000 ug/disk after 24 hr by disk diffusion method. As to conditions: NCIM 2065, 24 h, read-out: DIZ. It counts as functional.
Experiment [24] has as its system Escherichia coli. Description: Antibacterial activity against Escherichia coli NCIM 2065 at 500 ug/disk after 24 hr by disk diffusion method. The format is functional. As to conditions: NCIM 2065, 24 h, read-out: DIZ.
Experiment [25] has as its system Bacillus subtilis. Briefly: Antibacterial activity against Bacillus subtilis NCIM 2063 after 24 hr by broth dilution assay. The format is functional. As to conditions: NCIM 2063, 24 h. (In general: Broth dilution looks for growth in wells or tubes with falling amounts of substance.)
Experiment [26] relates to Klebsiella aerogenes. Briefly: Antibacterial activity against Enterobacter aerogenes NCIM 2239 after 24 hr by broth dilution assay. It counts as functional. Particulars: NCIM 2239, 24 h.
The subject of experiment [27] is Pseudomonas aeruginosa. Briefly: Antibacterial activity against Pseudomonas aeruginosa NCIM 2200 after 24 hr by broth dilution assay. As to conditions: NCIM 2200, 24 h. The format is functional.
In experiment [28] the test system is Escherichia coli. Description: Antibacterial activity against Escherichia coli NCIM 2065 after 24 hr by broth dilution assay. It counts as functional. As to conditions: NCIM 2065, 24 h.
Experiment [29] concerns Lipomyces lipofer. Description: Antifungal activity against Lipomyces lipofer NCIM 3252 after 72 hr by broth dilution assay. The format is functional. Particulars: NCIM 3252, 72 h.
Experiment [30] deals with Candida albicans. Description: Antifungal activity against Candida albicans NCIM 3471 after 72 hr by broth dilution assay. The format is functional. Particulars: NCIM 3471, 72 h.
The subject of experiment [31] is Rhodotorula mucilaginosa. Description: Antifungal activity against Rhodotorula mucilaginosa NCIM 3174 after 72 hr by broth dilution assay. The format is functional. As to conditions: NCIM 3174, 72 h.
Experiment [32] deals with Aspergillus flavus. Description: Antifungal activity against Aspergillus flavus NCIM 535 after 72 hr by broth dilution assay. Particulars: NCIM 535, 72 h. The format is functional.
Experiment [33] deals with Aspergillus niger. Briefly: Antifungal activity against Aspergillus niger NCIM 1196 after 72 hr by broth dilution assay. As to conditions: NCIM 1196, 72 h. It counts as functional.
Experiment [34] deals with Penicillium chrysogenum. Description: Antifungal activity against Penicillium chrysogenum NCIM 707 after 72 hr by broth dilution assay. It counts as functional. Particulars: NCIM 707, 72 h.
Experiment [35] concerns Streptomyces albus. Briefly: Antibacterial activity against Streptomyces albus NCIM 2178 after 24 hr by broth dilution assay. Particulars: NCIM 2178, 24 h. The format is functional.
Experiment [36] has as its system Bacillus cereus. Description: Antibacterial activity against Bacillus cereus NCIM 2155 after 24 hr by broth dilution assay. It counts as functional. As to conditions: NCIM 2155, 24 h.
Experiment [37] has as its system Candida albicans. Briefly: Antifungal activity against Candida albicans NCIM 3471 at 10 ug/disk after 72 hr by disk diffusion method. It counts as functional. Particulars: NCIM 3471, 72 h, read-out: DIZ.
Experiment [38] has as its system Rhodotorula mucilaginosa. Description: Antifungal activity against Rhodotorula mucilaginosa NCIM 3174 at 10 ug/disk after 72 hr by disk diffusion method. The format is functional. As to conditions: NCIM 3174, 72 h, read-out: DIZ.
The subject of experiment [39] is Aspergillus flavus. Briefly: Antifungal activity against Aspergillus flavus NCIM 535 at 10 ug/disk after 72 hr by disk diffusion method. It counts as functional. Particulars: NCIM 535, 72 h, read-out: DIZ.
In experiment [40] the test system is Aspergillus niger. Description: Antifungal activity against Aspergillus niger NCIM 1196 at 10 ug/disk after 72 hr by disk diffusion method. It counts as functional. As to conditions: NCIM 1196, 72 h, read-out: DIZ.
Experiment [41] has as its system Penicillium chrysogenum. Description: Antifungal activity against Penicillium chrysogenum NCIM 707 at 10 ug/disk after 72 hr by disk diffusion method. As to conditions: NCIM 707, 72 h, read-out: DIZ. The format is functional.
For experiment [42], the system named is Lipomyces lipofer. Description: Antifungal activity against Lipomyces lipofer NCIM 3252 at 10 ug/disk after 72 hr by disk diffusion method. It counts as functional. Particulars: NCIM 3252, 72 h, read-out: DIZ.

Broadly, the MIC is the least concentration at which growth counts as inhibited.

Molecules are shown by their SMILES. In brackets after ≈: the same amount, converted by molar mass. Activity calls are given as the source filed them. The calls are words filed in the database; no cut-off is given here.

In the case of `O=c1[nH]c(=O)c2cc3ccccc3nc2[nH]1`, the zone of inhibition at 1000 µg/disc came to 11 mm in the experiment with Lipomyces lipofer [1]; 12 mm with Candida albicans [3]; 11 mm in the experiment on Rhodotorula mucilaginosa [5]; 14 mm with Aspergillus flavus [7]; 10 mm in the experiment with Aspergillus niger [9]; 13 mm in the experiment on Penicillium chrysogenum [11]. In addition, the zone of inhibition at 1000 µg/disc with Streptomyces albus [13] amounted to 13 mm; with Bacillus cereus [15] it was 13 mm; in the experiment on Bacillus subtilis [17] it was 11 mm; in the experiment with Klebsiella aerogenes [19] it was 11 mm; in the experiment on Pseudomonas aeruginosa [21], 14 mm; with Escherichia coli [23], 13 mm. The zone of inhibition at 500 µg/disc in the experiment with Lipomyces lipofer [2] stood at 9 mm; with Candida albicans [4] it was 9 mm; in the experiment on Rhodotorula mucilaginosa [6] it was 10 mm; in the experiment on Aspergillus flavus [8] it was 11 mm; in the experiment with Penicillium chrysogenum [12] it was 8 mm; in the experiment on Bacillus cereus [16], 9 mm. The zone of inhibition at 500 µg/disc was 8 mm in the experiment on Bacillus subtilis [18], 8 mm in the experiment on Klebsiella aerogenes [20], 10 mm with Pseudomonas aeruginosa [22] and 11 mm in the experiment on Escherichia coli [24]. For the same compound, the “diameter of the inhibition zone (DIZ)” value in the experiment on Aspergillus niger [10] and with Streptomyces albus [14] was “inactive” each time. Besides, the MIC with Bacillus subtilis [25] came to 15.6 µg/mL (≈ 73.2 µM); against Klebsiella aerogenes [26], 31.2 µg/mL (≈ 146 µM); in the experiment on Pseudomonas aeruginosa [27], 31.2 µg/mL (≈ 146 µM); with Escherichia coli [28], 3.9 µg/mL (≈ 18.3 µM); in the experiment on Lipomyces lipofer [29], 62.5 µg/mL (≈ 293 µM); against Candida albicans [30], 15.6 µg/mL (≈ 73.2 µM). Also, the MIC against Rhodotorula mucilaginosa [31] stood at 7.8 µg/mL (≈ 36.6 µM); in the experiment with Aspergillus flavus [32], 3.9 µg/mL (≈ 18.3 µM); in the experiment on Aspergillus niger [33], 125 µg/mL (≈ 586 µM); against Penicillium chrysogenum [34], 7.8 µg/mL (≈ 36.6 µM); against Streptomyces albus [35], 31.2 µg/mL (≈ 146 µM); in the experiment on Bacillus cereus [36], 31.2 µg/mL (≈ 146 µM).

As to `Clc1ccccc1C(c1ccccc1)(c1ccccc1)n1ccnc1` [CLOTRIMAZOLE], the zone of inhibition at 10 µg/disc with Candida albicans [37] turned out to be 18 mm; with Rhodotorula mucilaginosa [38], 17 mm; in the experiment on Aspergillus flavus [39], 16 mm; with Aspergillus niger [40] it was 16 mm; with Penicillium chrysogenum [41], 21 mm; in the experiment on Lipomyces lipofer [42], 18 mm.
